According to PubChem BioAssay AID256 (DTP/NCI, 2004):
“And” between values parts separate entries of the source, which are not always exact repeats. Equal values may be shown once. Inconclusive results and toxic doses are left out. How the source made its calls: active means survival T/C of 150% or more; inactive means T/C below 125% in these data.

Tested on: CD2F1 mice, L1210 leukemia ip, survival T/C
Assay: NCI In Vivo Anticancer Drug Screen. Data for tumor model L1210 Leukemia (intraperitoneal) in CD2F1 (CDF1) mice
Conditions: endpoint: mean survival time, higher = longer survival
In short: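 Ratio T/C, where T is the treated-group value and C the vehicle-dosed control value, from mice implanted with a transplantable tumor.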

[1] = dose: 50.0 mg/kg/injection, schedule: Q01DX001 (ip), vehicle: carboxymethylcellulose (CMC)
[2] = dose: 100.0 mg/kg/injection, schedule: Q01DX001 (ip), vehicle: carboxymethylcellulose (CMC)
[3] = dose: 200.0 mg/kg/injection, schedule: Q01DX001 (ip), vehicle: carboxymethylcellulose (CMC)
[4] = dose: 400.0 mg/kg/injection, schedule: Q01DX001 (ip), vehicle: carboxymethylcellulose (CMC)
[5] = dose: 25.0 mg/kg/injection, schedule: Q04DX003 (ip), vehicle: saline
[6] = dose: 50.0 mg/kg/injection, schedule: Q04DX003 (ip), vehicle: saline
[7] = dose: 100.0 mg/kg/injection, schedule: Q01DX009 (ip), vehicle: saline with Tween-80
[8] = dose: 200.0 mg/kg/injection, schedule: Q01DX009 (ip), vehicle: saline with Tween-80
[9] = dose: 400.0 mg/kg/injection, schedule: Q01DX009 (ip), vehicle: saline with Tween-80
[10] = dose: 100.0 mg/kg/injection, schedule: Q04DX003 (ip), vehicle: saline with Tween-80
[11] = dose: 200.0 mg/kg/injection, schedule: Q04DX003 (ip), vehicle: saline with Tween-80
[12] = dose: 400.0 mg/kg/injection, schedule: Q04DX003 (ip), vehicle: saline with Tween-80
[13] = dose: 400.0 mg/kg/injection, schedule: Q04DX002 (ip), vehicle: saline with Tween-80
[14] = dose: 100.0 mg/kg/injection, schedule: Q04DX003 (ip), vehicle: saline
[15] = dose: 100.0 mg/kg/injection, schedule: Q01DX001 (ip), vehicle: saline with Tween-80
[16] = dose: 100.0 mg/kg/injection, schedule: Q04DX002 (ip), vehicle: saline with Tween-80
[17] = dose: 400.0 mg/kg/injection, schedule: Q01DX001 (ip), vehicle: saline with Tween-80

Measured: T/C

[Cl][Sb]([c]1ccccc1)([c]1ccccc1)([c]1ccccc1)[c]1ccccc1
inactive: dose: 4.7 mg/kg/injection, schedule: Q04DX003 (ip), vehicle: saline 98 % of control | dose: 9.4 mg/kg/injection, schedule: Q04DX003 (ip), vehicle: saline 102 % of control

COc1cc(OC)c(/C=C/c2cc[n+](C)c3ccccc23)c(OC)c1
inactive: dose: 1.56 mg/kg/injection, schedule: Q01DX009 (ip), vehicle: saline 106 % of control | dose: 1.56 mg/kg/injection, schedule: Q04DX002 (ip), vehicle: saline 100 % of control | dose: 3.13 mg/kg/injection, schedule: Q01DX009 (ip), vehicle: saline 109 % of control | dose: 3.13 mg/kg/injection, schedule: Q04DX002 (ip), vehicle: saline 98 % of control | dose: 6.25 mg/kg/injection, schedule: Q04DX002 (ip), vehicle: saline 88 % of control and 91 % of control

CC(=O)Nc1c(Br)cc2c(c1Br)Cc1cc(N(CCO)CCO)ccc1-2
inactive: [1] 102 % of control | [2] 102 % of control | [3] 104 % of control | [4] 98 % of control

CCCC(=O)NN=C(C)C
inactive: dose: 12.5 mg/kg/injection, schedule: Q04DX003 (ip), vehicle: saline 105 % of control | [5] 104 % of control | [6] 107 % of control

CNC(=O)NNC(=O)c1ccccc1Cl
inactive: [7] 88 % of control | [8] 108 % of control | [9] 98 % of control

O=C(C1=CN(CCCO)CCC1)c1cc2ccccc2n1S(=O)(=O)c1ccccc1
inactive: [10] 104 % of control | [11] 90 % of control | [12] 97 % of control

COc1ccc(NC(=O)Nc2cccc(Cl)c2)c(Cl)c1
inactive: dose: 25.0 mg/kg/injection, schedule: Q04DX002 (ip), vehicle: saline with Tween-80 88 % of control | dose: 50.0 mg/kg/injection, schedule: Q04DX002 (ip), vehicle: saline with Tween-80 92 % of control | [13] 88 % of control

O=S(=O)(O)c1ccc2c(N=Nc3ccccc3[As](=O)(O)O)c(O)c(S(=O)(=O)O)cc2c1
inactive: [7] 96 % of control | [10] 104 % of control | [8] 100 % of control | [11] 94 % of control | [12] 98 % of control

CN1CC(=O)N=C1N.CN1CC(=O)N=C1N.[Cl][Pt][Cl]
inactive: dose: 3.13 mg/kg/injection, schedule: Q04DX003 (ip), vehicle: water 102 % of control | dose: 6.25 mg/kg/injection, schedule: Q04DX003 (ip), vehicle: water 96 % of control | dose: 12.5 mg/kg/injection, schedule: Q04DX003 (ip), vehicle: water 96 % of control | dose: 25.0 mg/kg/injection, schedule: Q04DX003 (ip), vehicle: water 100 % of control | dose: 50.0 mg/kg/injection, schedule: Q04DX003 (ip), vehicle: water 102 % of control | dose: 100.0 mg/kg/injection, schedule: Q04DX003 (ip), vehicle: water 92 % of control

Nc1ccc(S(=O)(=O)c2ccc(N)c(S(N)(=O)=O)c2)cc1
inactive: [7] 92 % of control | [8] 91 % of control | [9] 100 % of control

O=C(O)c1ccco1
inactive: [14] 94 % of control | dose: 200.0 mg/kg/injection, schedule: Q04DX003 (ip), vehicle: saline 95 % of control

O=C1Cc2cccc(=O)c(O)c2C(=O)O1
inactive: [5] 96 % of control | [6] 104 % of control | [14] 94 % of control

O=C(Nc1cccc2ccccc12)[C@H]1C[C@H]2C=C[C@@H]1C2
inactive: dose: 37.5 mg/kg/injection, schedule: Q01DX009 (ip), vehicle: saline with Tween-80 101 % of control | dose: 75.0 mg/kg/injection, schedule: Q01DX009 (ip), vehicle: saline with Tween-80 95 % of control | dose: 150.0 mg/kg/injection, schedule: Q01DX009 (ip), vehicle: saline with Tween-80 95 % of control | dose: 300.0 mg/kg/injection, schedule: Q01DX009 (ip), vehicle: saline with Tween-80 97 % of control

O=C(/C=C/c1ccccc1)NC(=S)NCc1ccccc1
inactive: [15] 91 % of control | [7] 97 % of control and 100 % of control | [16] 89 % of control and 94 % of control and 98 % of control | dose: 200.0 mg/kg/injection, schedule: Q01DX001 (ip), vehicle: saline with Tween-80 88 % of control | [8] 94 % of control and 104 % of control | [17] 91 % of control | [9] 101 % of control and 105 % of control

CCOC(=O)CCC(N)C(=O)OCC (configuration not stated)
inactive: dose: 100.0 mg/kg/injection, schedule: Q01DX001 (ip), vehicle: saline 95 % of control | dose: 200.0 mg/kg/injection, schedule: Q01DX001 (ip), vehicle: saline 88 % of control | dose: 400.0 mg/kg/injection, schedule: Q01DX001 (ip), vehicle: saline 93 % of control

O=CC(O)C(O)C(OC1OC(CO)C(OC2OC(CO)C(O)C(O)C2O)C(O)C1O)C(O)CO (configuration not stated)
inactive: [7] 98 % of control | [8] 95 % of control | [9] 95 % of control

O=C(O)c1cc([N+](=O)[O-])ccc1Br
inactive: [10] 103 % of control | [11] 105 % of control | [12] 95 % of control

Clc1cc(Cl)c(OCC#CI)cc1Cl
inactive: [1] 91 % of control | [2] 102 % of control | [3] 91 % of control | [4] 89 % of control

COc1ccc(COC(=O)Nc2ccc(Cl)cc2)cc1OC
inactive: [16] 96 % of control | dose: 200.0 mg/kg/injection, schedule: Q04DX002 (ip), vehicle: saline with Tween-80 100 % of control | [13] 112 % of control

Cc1ccc(NC(=O)NCCCCCCNC(=O)Nc2ccc(C)c(Cl)c2)cc1Cl
inactive: [15] 89 % of control | [17] 91 % of control

CCOC(=O)Nc1cc(Cl)c2nnn(C3OC(CO)C(O)C3O)c2n1 (configuration not stated)
inactive: dose: 12.5 mg/kg/injection, schedule: Q01DX005 (ip), vehicle: water 90 % of control | dose: 25.0 mg/kg/injection, schedule: Q01DX005 (ip), vehicle: water 94 % of control | dose: 50.0 mg/kg/injection, schedule: Q01DX005 (ip), vehicle: water 86 % of control | dose: 100.0 mg/kg/injection, schedule: Q01DX005 (ip), vehicle: water 96 % of control | dose: 200.0 mg/kg/injection, schedule: Q01DX005 (ip), vehicle: water 90 % of control

O=NN1Cc2ccccc2C1=O
inactive: [7] 96 % of control | [8] 94 % of control | [9] 94 % of control

Cn1c(CC(O)c2nc3ccccc3n2C)nc2ccccc21 (configuration not stated)
inactive: dose: 50.0 mg/kg/injection, schedule: Q01DX009 (ip), vehicle: Klucel (hydroxypropylcellulose) (HPC) 97 % of control | dose: 100.0 mg/kg/injection, schedule: Q01DX009 (ip), vehicle: Klucel (hydroxypropylcellulose) (HPC) 101 % of control | dose: 200.0 mg/kg/injection, schedule: Q01DX009 (ip), vehicle: Klucel (hydroxypropylcellulose) (HPC) 120 % of control

O=C1c2ccccc2C(=O)c2c(NCCCCCO)ccc(NCCCCCO)c21
inactive: dose: 16.0 mg/kg/injection, schedule: Q01DX009 (ip), vehicle: Klucel (hydroxypropylcellulose) (HPC) 102 % of control | dose: 32.0 mg/kg/injection, schedule: Q01DX009 (ip), vehicle: Klucel (hydroxypropylcellulose) (HPC) 93 % of control | dose: 64.0 mg/kg/injection, schedule: Q01DX009 (ip), vehicle: Klucel (hydroxypropylcellulose) (HPC) 96 % of control | dose: 128.0 mg/kg/injection, schedule: Q01DX009 (ip), vehicle: Klucel (hydroxypropylcellulose) (HPC) 96 % of control | dose: 256.0 mg/kg/injection, schedule: Q01DX009 (ip), vehicle: Klucel (hydroxypropylcellulose) (HPC) 104 % of control
